Data published in paper PMC2747021, “Synergistic Antibacterial and Anti-Inflammatory Activity of Temporin A and Modified Temporin B In Vivo” (PLoS ONE, 2009).
No end group written: not given here.

Tests used:
[1] = system: Staphilococcus.aureus A170; conditions: single peptide; MIC100, MH broth, about 10^6 CFU/ml, 37°C 20 h, absorbance 600 nm, triplicate
[2] = system: Salmonella enterica serovar Paratyphi; test: Antibacterial activity, MIC100 broth dilution; format: cell-based; conditions: single peptide; MIC100, MH broth, about 10^6 CFU/ml, 37°C 20 h, absorbance 600 nm, triplicate
Escherichian coli = conditions: 20 h
Listeria monocytogenes = conditions: 20 h
[3] = system: Staphilococcus aureus 007; conditions: 20 h
[4] = system: Staphilococcus .aureus A172; conditions: 20 h
gram negative bacteria = conditions: for antimicrobial activity against gram negative bacteria: in words, data not shown
gram positive bacteria = test: Antibacterial activity, summary for gram positive bacteria; format: cell-based; conditions: for antimicrobial activity against gram positive bacteria: in words, approximately to the same extent as temporin A, data not shown
Source text: The study included the following species: Staphylococcus aureus (isolate A170, A172, 007), Listeria monocytogenes, Salmonella enterica serovar Paratyphi, Salmonella enterica serovar Typhimurium, Escherichia coli. Isolates were obtained from patients hospitalized at the Medical School of the University of Naples. Specimen were confirmed by PCR assay of the genes sea (S. aureus), MonoA (L. monocytogenes), abe (S. enterica serovar Paratyphi), FliC (S. enterica serovar Typhimurium), sat (E. coli) [20]–[23]. Bacteria were grown at 37°C in TSB medium (S. aureus and L. monocytogenes) or LB medium (the remaining bacterial species) (Difco, Becton Dickinson, Sparks, MD), harvested while in exponential phase (OD600 nm; 0-6-0.8), centrifuged (8×10^3 g for 10 min), washed with saline (0.15 M NaCl) and resuspended in saline (10^6–10^7 CFU/ml).
Bacteria were grown at 37°C in TSB (S. aureus and L. monocytogenes) or in LB medium (the remaining bacterial species), harvested while in exponential phase (OD600 nm; 0-6-0.8), centrifuged (8×10^3 g for 10 min), washed with saline, resuspended in Muller Hinton (MH) broth at the concentration of approximately 10^6 CFU/ml and distributed, in triplicate, into 96 well plates (60 µl/well), mixed with twofold dilutions of the antimicrobial (TA: 5–100 µg, 40 µl/well; TB-YK: 4–100 µg, 40 µl/well; TA 5 µg+TB-YK 8 µg, 40 µl/well and incubated at 37°C for 20 h. The minimal concentration of the antimicrobial at which 100% inhibition of growth was observed (MIC100) was determined by measuring the absorbance at 600 nm (Biorad microplate reader model 680, Hercules, CA). The antibacterial activity was measured by spotting an aliquot (10 µl) of each well on TSA or LB agar and counting the CFU. A potential synergism between temporins was evaluated by adding combinations of two temporins in a serial twofold dilutions (TA: 5–100 µg;TB-YK: 4–100 µg; 40 µl/well) to wells containing 10^5 CFU/well in 60 µl. The presence of synergism was established as described.

Row | Substance | MIC [1] [µg/mL] | MIC [2] [µg/mL] | MIC (Escherichian coli) [µg/mL] | MIC (Listeria monocytogenes) [µg/mL] | MIC [3] [µg/mL] | MIC [4] [µg/mL] | MIC (gram negative bacteria; 20 h) [µg/mL] | MIC (gram positive bacteria; range over the gram positive bacteria tested) [µg/mL] | antimicrobial activity against gram negative bacteria (gram negative bacteria) | antimicrobial activity against gram positive bacteria (gram positive bacteria)
1 | FLPLIGRVLSGIL-NH2 [TA, temporin A] | 10 | 400 | 125 | 30 | 10 | 20 | 125 to 400 | 10 to 30 | – | –
2 | H-YLLPI VGNLLKSLL- NH2 [TB-Y, temporin B with one extra tyrosine residue at the N-terminus] | – | – | – | – | – | – | – | – | totally inactive | active
3 | H-LLPI VGNLLKSLL- NH2 [TB, temporin B, synthetic temporin B in its native form] | – | – | – | – | – | – | – | – | totally inactive | active
